Data taken from the METLIN SMRT retention time set (Domingo-Almenara et al. 2019).

Experiment: gradient 5% acetonitrile 3 min, to 50% in 2 min, to 85% in 15 min, held 3 min, 100 µL/min
Conditions: column: Zorbax Extend-C18 2.1 x 50 mm; eluents: water / acetonitrile, 0.1% formic acid
How it was run: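 Retention times come from adduct peaks that were picked computationally and then checked by hand. The standards, pure and pooled in mixtures of ~100 molecules, were run on a Zorbax Extend-C18 column (2.1 × 50 mm, 1.8 μm) at 100 μL/min with water and acetonitrile, each with 0.1% formic acid. Detection was by quadrupole time-of-flight mass spectrometry in positive and negative ionization mode, with a dead volume of 40 μL and a dwell volume of 900 μL.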

SMILES | RP-LC retention time [s]
O=C(c1cc(-c2ccccc2)n[nH]1)N1CCN(S(=O)(=O)c2ccc(F)cc2)CC1 | 840
O=C(NCc1csc(-c2ccccc2)n1)C1CCCN(c2cc(-n3cccn3)ncn2)C1 (stereo not drawn) | 813
Cc1cc(S(=O)(=O)N2CCC(n3cnnc3C(C)C)CC2)ccc1F | 751
CC(C)CN(Cc1ccccc1)Cc1cc(=O)n2cc(Cl)ccc2n1 | 686
Cc1ccn2c(=O)c(C(=O)Nc3nc(C)cs3)cnc2c1 | 673
CCc1cccc(CC)c1NC(=O)N1Cc2[nH]nc(NC(=O)c3ccc(N4CCN(C)CC4)cc3)c2C1 | 664
CCN1C(=O)c2cccnc2Sc2cc(NC(=O)c3ccc(C(C)C)cc3)ccc21 | 998
Fc1ccc(-c2noc(Cc3nc(-c4ccc(Cl)cc4)cs3)n2)cc1 | 1310
O=C(Cn1cccc(-c2nc(-c3ccc(F)cc3)no2)c1=O)Nc1cccc(Br)c1 | 950
Cc1ccn2c(Nc3ccccc3C)c(-c3cccc(O)c3)nc2c1 | 673
c1cncc(-c2nc(-c3ccnc(N4CCCC4)c3)no2)c1 | 590
Cc1cc(C)n2nc(SCC(=O)N(c3ccccc3)c3ccccc3)nc2n1 | 824
O=C(CSc1nnc(-c2ccncc2)o1)N1CCCc2ccccc21 | 788
CCOc1ccccc1CNC(=O)COc1nc(CC)nc2oc(C)c(C)c12 | 1050
CCN1C(=O)CCC2(C(=O)Nc3ccc(N4CCOCC4)cc3)CCCC=C12 (stereo not drawn) | 663
CC(C)c1ccc(N2CC(c3nc(-c4ccc5c(c4)OCO5)no3)CC2=O)cc1 (stereo not drawn) | 1100
CC(=O)Nc1ccc(C2(C(=O)NCc3ccc(F)cc3)CCC2)cc1 | 748
COc1ccc(-c2noc(-c3cccn(CC(=O)Nc4cccc(SC)c4)c3=O)n2)cc1OC | 853
CCCNS(=O)(=O)c1cccc(-c2nnc(-c3ccc(C)cc3)o2)c1 | 971

SMILES | RP-LC retention time [s]
O=c1n(Cc2ccccc2F)nc2c(S(=O)(=O)N3CCCCCC3)cccn12 | 938
Cc1ccc(C)c(-n2ccn(Cc3nc(-c4ccccc4)no3)c(=O)c2=O)c1 | 886
C=C(C)Cn1c(COc2ccccc2)nc2ccccc21 | 718
CCOc1ccc(CNS(=O)(=O)c2ccc3c(c2)CCCC(=O)N3)cc1 | 744
CSc1cccc(NC(=O)C(=O)NCc2cccs2)c1 | 846
Cc1cc(C)cc(N2C(=O)C3N=NN(c4ccc(C)c(Cl)c4)C3C2=O)c1 (stereo not drawn) | 1170
COc1ccc(CCC(=O)Nc2c(C(=O)N3CCN(c4ccccn4)CC3)oc3ccccc23)cc1 | 834
COCCCNC(=O)c1ccc(-c2nc(CSc3ccccc3)c(C)o2)cc1 | 934
CCCN(CCC)C(=O)c1cc(NC(=O)C(C)C)cnc1N1CCNCC1 | 606
CC(=O)c1ccc(NC(=O)Cn2cnc3nc4c(cc3c2=O)CC(C)CC4)cc1 (stereo not drawn) | 738
Cc1ccc2c(C(=O)NCC(C)C)cc(NC(=O)C3CCC3)cc2n1 | 613
COc1ccccc1Nc1nc(-c2ccccc2)c(CC(=O)O)s1 | 891
O=C(O)CCc1conc1-c1ccccc1F | 712
Cc1noc(C)c1CNC(=O)c1nccc2ccccc12 | 753
OC(c1ccc(C(F)(F)F)cc1)c1cccnc1 (stereo not drawn) | 630
Cc1ccc(C(=O)N2CCN(c3nnc4ccc(C(F)(F)F)cn34)CC2)s1 | 762
COc1ccc(NC(=O)CSc2ccc(N3CCCC(C(=O)NC4CC4)C3)nn2)c(OC)c1 (stereo not drawn) | 642
Cc1ccc(-n2nnnc2CNC(=O)Nc2ccc3c(c2)OCO3)cc1C | 734
COc1ccc2[nH]cc(CCO)c2c1 | 660
